Common to all, as to assay: DTP human tumour cell line panel, 48 h
The subject of test [1] is CAKI-1 renal.
Test [2] deals with TK-10 renal.
The subject of test [3] is HCT-116 colon.
The test system of test [4] is MDA-N.
Test [5] deals with OVCAR-8 ovarian.
The subject of test [6] is SK-MEL-28 melanoma.
Test [7] concerns UACC-62 melanoma.
Test [8] relates to 786-0 renal.
Test [9] relates to NCI-H226 lung.
For test [10], the system named is NCI-H460 lung.
Test [11] has as its system U251 CNS.

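Step 1: Grow cells in 96-well plates. Step 2: Expose to compound for 48 hours at 5 concentrations. Step 3: Interpolate endpoints linearly; if unreached, use highest concentration. GI50: concentration for 50% inhibition of growth. TGI denotes the concentration required for complete inhibition of growth.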 Some results are limits rather than exact numbers.

A word on the TGI: it is the concentration giving total growth inhibition. Low readings indicate greater sensitivity of the cells, high ones lower sensitivity of the cells. For `CN1[C@@H]2C[C@@H](OC(=O)[C@H](CO)c3ccccc3)C[C@H]1[C@@H]1O[C@@H]12`, the TGI in test [1], in test [2], in [3], in test [4], in [5] and in test [6] was more than 100 µM throughout. Further, the TGI in test [7], in test [8] and in test [9] was more than 100 µM each time.
Turning to `O=C1NC2OC(C(O)CO)C(O)C2O1` (configuration not stated), the TGI in test [1], in test [2], in test [10], in [3], in test [5] and in test [6] was more than 100 µM each time. In addition, the TGI in test [7], in [11] and in test [8] was more than 100 µM throughout.
Regarding `O=C1CSC(/C(=N/Nc2ccccc2)c2nc3ccccc3[nH]2)=N1`, the TGI in test [1] is 56.1 µM; in test [2], more than 100 µM; in test [10], more than 100 µM; in test [3], more than 100 µM; in test [5], more than 100 µM; in test [6] it was 79 µM. For the same compound, the TGI in test [7] is more than 100 µM; in [11], more than 100 µM; in [8], 80 µM; in [9], 59.7 µM.
`Cc1ccc(O)c(-c2cscn2)c1`: the TGI in test [1], in test [2], in [10], in test [3], in test [4] and in test [5] was more than 100 µM each time. Also, the TGI in test [7] and in [8] was more than 100 µM each time.
On to `CSc1sc2ccccc2[s+]1`, for which the TGI in test [1], in [2], in test [10], in [3], in [5] and in [7] was more than 100 µM in each case. Besides, the TGI in test [11], in test [8] and in test [9] was more than 100 µM each time.
Turning to `Nc1ccn(C2OC(CO)C(O)C2O)c(=O)c1` (configuration not stated), the TGI in [1], in test [10], in [3], in [5], in test [6] and in [7] was more than 625 µM throughout. Also, the TGI in test [11] and in test [9] was more than 625 µM each time.
On to `C=C1C(=O)C=C[C@]2(C)CC[C@H]3C(=C)C(=O)O[C@@H]3[C@@H]12`, for which the TGI in test [1] was 8.53 µM; in test [2], 1.98 µM; in test [10] it was 33.1 µM; in test [3], 0.483 µM; in [4], 16.6 µM; in test [5], 17.2 µM. In addition, the TGI in test [6] is 4.04 µM; in test [7], 4.29 µM; in [11], 5.75 µM; in test [8], 3.28 µM.
Consider `CC(C)(Cl)C(Br)CCC(=CCCl)CBr` (mixture of isomers), for which the TGI in [2] is 5.21 µM; in [10], 5.71 µM; in [3], 3.67 µM; in [4] it was 3.28 µM; in test [5] it was 5.26 µM; in [6], 5.65 µM. In addition, the TGI in [7] was found to be 5.41 µM; in test [11], 5.59 µM; in test [8] it was 3.77 µM; in [9], 45 µM.
For the compound `Cc1cc(S(=O)(=O)Nc2nc3cc(-c4ccc(Cl)cc4)sc3c(=O)n2N)c(S)cc1Cl`, the TGI in test [1], in test [2], in test [10], in test [3], in test [4] and in test [5] was more than 100 µM throughout. Also, the TGI in test [6], in test [7], in test [11] and in test [8] was more than 100 µM each time.
Consider `CSc1ncnc2c1ncn2CCC#N`, for which the TGI in [1], in test [2], in test [10], in test [3], in [4] and in [5] was more than 100 µM in each case. The TGI in [6], in test [8] and in [9] was more than 100 µM in each case.
Consider `OCc1ccc(C2CC(c3ccco3)=NN2c2ccccc2)o1` (configuration not stated), for which the TGI in test [2], in test [10], in [3], in test [5], in test [6] and in test [7] was more than 100 µM throughout. The TGI in test [11], in test [8] and in [9] was more than 100 µM throughout.
As to `[N-]=[N+]=NC1=C(c2ccccn2)C(=O)c2cccc3cccc1c23`, the TGI in test [1], in [2], in [10], in test [3], in test [4] and in test [6] was more than 100 µM throughout. Further, the TGI in test [7], in test [11] and in [8] was more than 100 µM throughout.
For the compound `S=C(Nc1ccc2c(c1)oc1ccccc12)c1cccnc1`, the TGI in test [2], in test [10], in test [3], in test [4], in [5] and in [6] was more than 100 µM throughout. Moreover, the TGI in [7] was more than 100 µM; in [11], 89.7 µM; in test [8], more than 100 µM; in test [9] it was 96.1 µM.
For `COC1C=COC2(C)Oc3c(C)c(O)c4c(O)c(c(C5SCCS5)c(O)c4c3C2=O)NC(=O)C(C)=C/C=C\C(C)C2OC(C)(C)OC(C2C)C(C)C(OC(C)=O)C1C` (configuration not stated), the TGI in [1] was 27.7 µM; in [2], 24.8 µM; in test [10] it was 63.2 µM; in test [3] it was more than 100 µM; in test [5], 28.5 µM; in test [6], more than 100 µM. Besides, the TGI in [7] is 15 µM; in test [11], more than 100 µM; in [8], 44 µM; in test [9], 22.1 µM.
Regarding `COc1cc2c3c(c1OC)C1(C=CC(=O)C=C1)C[C@H]3N(C)CC2`, the TGI in [2], in test [10], in test [3], in test [5], in test [6] and in test [7] was more than 100 µM in each case. In addition, the TGI in test [11], in test [8] and in test [9] was more than 100 µM in each case.
Regarding `CCC(=O)ONC(=O)Cn1ccc([N+](=O)[O-])n1`, the TGI in test [1], in test [2], in test [3], in [4], in [5] and in test [6] was more than 100 µM in each case. For the same compound, the TGI in test [7], in test [8] and in test [9] was more than 100 µM in each case.
Consider `Cn1c2ccccc2c(=O)c2cccc(C(=O)NC(CCCN=C(N)N)C(=O)O)c21` (configuration not stated), for which the TGI in test [2], in test [10], in test [3], in test [4], in [5] and in [6] was more than 100 µM throughout. Moreover, the TGI in test [7], in test [11], in test [8] and in [9] was more than 100 µM each time.
As to `Cc1ccc(S(=O)(=O)C(C#N)c2nc3ccccc3nc2-n2ccnc2)cc1` (configuration not stated), the TGI in test [2], in test [10], in test [3], in test [5], in test [6] and in test [11] was more than 100 µM in each case. Moreover, the TGI in test [8] and in test [9] was more than 100 µM throughout.
Turning to `Cc1ccc(S(=O)(=O)NC(=O)N[C@@H](Cc2cnc[nH]2)C(=O)O)cc1`, the TGI in test [2], in [10], in test [3], in [4], in test [5] and in test [6] was more than 100 µM in each case. Further, the TGI in [7], in test [11] and in test [8] was more than 100 µM in each case.
Take `O=C1C(=Cc2ccccc2O)N=C(c2ccccc2)N1n1c(-c2ccccc2)nc2ccccc2c1=O`: the TGI in test [1] was 84.8 µM; in test [2], more than 100 µM; in test [10] it was more than 100 µM; in test [3] it was 89.8 µM; in test [4], more than 100 µM; in test [5], more than 100 µM. The concentration for total growth inhibition (TGI) is more than 100 µM in [6], more than 100 µM in test [7], more than 100 µM in test [8] and 79 µM in [9].
Broadly, the GI50 is the concentration at which growth is held to half of that of the control. With `COc1ccc(-c2nn(-c3ccc(NC(=O)Nc4cc(C(F)(F)F)cc(C(F)(F)F)c4)cc3)cc2-c2ccncc2)cc1Cl`, the GI50 was 2.51 µM in test [1]; 1.85 µM in [2]; 1.91 µM in [10]; 1.53 µM in test [3]; 3.27 µM in test [5]; 2.22 µM in test [6]. The results for the GI50 in test [7], in test [11] and in test [9] were 2.02 µM, 1.85 µM and 4.1 µM, respectively. The TGI in test [1] was more than 100 µM; in test [2] it was 7.25 µM; in [10], 5.95 µM; in [3], 3.52 µM; in test [5], more than 100 µM; in [6] it was 6.18 µM. The TGI in [7] was found to be 5.02 µM; in [11], 5.48 µM; in test [9], 34.2 µM.
As to `CCOC(=O)c1ccc(C)c(N=NN(C)C)c1`, the TGI in test [1], in test [2], in test [10], in test [3], in test [5] and in test [6] was more than 100 µM throughout. Besides, the TGI in [7], in test [11], in test [8] and in [9] was more than 100 µM each time.
Regarding `COc1ccc(C2COc3cc(O)c(O)cc3C2)cc1` (configuration not stated), the TGI in [1] was found to be 52.9 µM; in test [10] it was 213 µM; in test [3], 42.1 µM; in test [5], 63.3 µM; in test [6], 32.9 µM; in [7] it was 46.3 µM. Also, the TGI in test [11] was determined as 77.8 µM; in test [9], 213 µM.
With `CC1=C(CO)C(=O)O[C@@H]([C@@H](CO)[C@H]2CCC3C4C[C@@H](O)[C@@]5(O)CC=CC(=O)[C@]5(C)C4CC[C@@]32C)C1` (some centres not stated), the TGI in test [1], in [2], in test [3], in test [4], in test [5] and in test [7] was more than 100 µM throughout. Further, the TGI in test [8] and in [9] was more than 100 µM in each case.
For `O=C(O)/C=c1/c2ccccc2n2nc3ccccc3c12`, the total growth inhibition concentration (TGI) is more than 100 µM in [1]; more than 100 µM in [2]; more than 100 µM in test [10]; 90.7 µM in [3]; more than 100 µM in test [4]; 60.8 µM in [5]. Moreover, the TGI was more than 100 µM in test [6], 43.5 µM in test [7], more than 100 µM in test [11] and more than 100 µM in test [8].
In the case of `O=c1c(C(c2ccc(Cl)cc2)c2c(O)c3ccccc3n(-c3ccccc3)c2=O)c(O)c2ccccc2n1-c1ccccc1`, the TGI in [1], in test [2], in [3], in [5], in test [6] and in [7] was more than 100 µM each time. The TGI in [11] and in [9] was more than 100 µM each time.
Turning to `COC(=O)C1=C(C)NC(C)=C(C(=O)OC)C1c1nc2sccn2c1[N+](=O)[O-]`, the TGI in [1], in test [2], in test [10], in [3], in test [5] and in test [6] was more than 100 µM each time. The TGI in test [7], in test [11], in test [8] and in test [9] was more than 100 µM each time.
As for `O=C(CN(c1ccccc1)c1ccccc1)n1nnc2ccccc21`, the TGI is more than 100 µM in test [1]; more than 100 µM in test [2]; more than 100 µM in test [10]; 84.7 µM in test [3]; more than 100 µM in [5]; more than 100 µM in test [6]. For the same compound, the total growth inhibition concentration (TGI) in test [7], in test [11], in test [8] and in test [9] was more than 100 µM each time.

Values taken from PubChem BioAssay (NCI).
